Experimental data as given in patent US20240365781A1, “SYNERGISTICALLY EFFECTIVE HERBICIDE COMPOSITION COMPRISING PELARGONIC ACID AND FLAZASULFURON” (Belchim Crop Protection NV, priority 2017, published 2024).

Tests used:
Format in all cases: in vivo
Stellaria media = assay: post-emergence field trial under rows of apple trees, 150-200 L water/ha (Examples 10-12)
Sonchus oleracea = assay: as above
Festuca ovina = assay: post-emergence test, field trial (Examples 1-5); conditions: FT
Text: (§1) The expected activity of a given combination of two or three herbicides can be calculated as follows according to a calculation method by Colby (cf. COLBY, S. R.: “Calculating synergistic and antagonistic responses of herbicide combinations”, • Weeds 15, pages 20-22, 1967): • If X=% damage by herbicide (A) at an application rate of m g/ha, • Y=% damage by herbicide (B) at an application rate of n g/ha, • E=the expected damage by herbicides (A) and (B) at application rates of m and n […] and, • then for a combination:
(§2) Individual compositions comprising pelargonic acid or flazasulfuron are compared with a herbicide composition according to the invention comprising pelargonic acid and flazasulfuron.
(§3) Herbicidal activity was determined by performing a post-emergence test. […] The corresponding mixture was in the form of a spray liquor. Besides, spray liquors of individual compositions comprising pelargonic acid or flazasulfuron were used.
(§4) Tests were performed on test fields (field trials) or in pots (pot trials).

Veronica persica = assay: post-emergence test, field trial (Examples 1-5); conditions: FT, pelargonic acid 5440 g/ha, flazasulfuron 50 g/ha, 8 L/ha
Text: as §1, §2, §3, §4

Echinochloa crusgalli = assay: post-emergence test, field trial (Examples 1-5); conditions: FT
Text: as §1, §2, §3, §4

Digitaria sang = assay: post-emergence test, field trial (Examples 1-5); conditions: FT, pelargonic acid 5440 g/ha, flazasulfuron 50 g/ha, 8 L/ha
Text: as §1, §2, §3, §4

Anagallis arvensis = assay: post-emergence test, field trial (Examples 1-5); conditions: 3 d, FT; pelargonic acid 5440 g/ha, flazasulfuron 50 g/ha; 8 L/ha
Text: as §1, §2, §3, §4

Lolium sp. = assay: post-emergence test, field trial (Examples 1-5); conditions: 7 d, FT; pelargonic acid 5440 g/ha, flazasulfuron 50 g/ha; 8 L/ha
Text: as §1, §2, §3, §4

Chenopodium album = assay: post-emergence test, field trial (Examples 1-5); conditions: FT
Text: as §1, §2, §3, §4

Plantago major = assay: post-emergence test, field trial (Examples 1-5); conditions: FT
Text: as §1, §2, §3, §4

Convolvulus arvensis L. = assay: post-emergence test, field trial (Examples 1-5); conditions: 3 d, FT; pelargonic acid 5440 g/ha, flazasulfuron 50 g/ha; 8 L/ha
Text: as §1, §2, §3, §4

Sonchus oleraceus L. = assay: post-emergence test, field trial (Examples 1-5); conditions: FT, pelargonic acid 5440 g/ha, flazasulfuron 50 g/ha, 8 L/ha
Text: as §1, §2, §3, §4

[1] = 3 d, pelargonic acid 10880 g/ha, flazasulfuron 25 g/ha, 16 L/ha
[2] = 3 d, pelargonic acid 21760 g/ha, flazasulfuron 25 g/ha, 32 L/ha
[3] = 7 d, pelargonic acid 10880 g/ha, flazasulfuron 25 g/ha, 16 L/ha
[4] = 7 d, pelargonic acid 10880 g/ha, flazasulfuron 50 g/ha, 16 L/ha
[5] = 7 d, pelargonic acid 21760 g/ha, flazasulfuron 25 g/ha, 32 L/ha
[6] = 7 d, pelargonic acid 21760 g/ha, flazasulfuron 50 g/ha, 32 L/ha
[7] = 13 d, pelargonic acid 10880 g/ha, flazasulfuron 25 g/ha, 16 L/ha
[8] = 13 d, pelargonic acid 10880 g/ha, flazasulfuron 50 g/ha, 16 L/ha
[9] = 13 d, pelargonic acid 21760 g/ha, flazasulfuron 25 g/ha, 32 L/ha
[10] = 13 d, pelargonic acid 21760 g/ha, flazasulfuron 50 g/ha, 32 L/ha
[11] = 23 d, pelargonic acid 10880 g/ha, flazasulfuron 25 g/ha, 16 L/ha
[12] = 23 d, pelargonic acid 10880 g/ha, flazasulfuron 50 g/ha, 16 L/ha
[13] = 23 d, pelargonic acid 21760 g/ha, flazasulfuron 25 g/ha, 32 L/ha
[14] = 23 d, pelargonic acid 21760 g/ha, flazasulfuron 50 g/ha, 32 L/ha
[15] = 30 d, pelargonic acid 10880 g/ha, flazasulfuron 25 g/ha, 16 L/ha
[16] = 30 d, pelargonic acid 21760 g/ha, flazasulfuron 25 g/ha, 32 L/ha
[17] = 38 d, pelargonic acid 10880 g/ha, flazasulfuron 25 g/ha, 16 L/ha
[18] = 38 d, pelargonic acid 21760 g/ha, flazasulfuron 25 g/ha, 32 L/ha
[19] = 3 d, pelargonic acid 10880 g/ha, flazasulfuron 50 g/ha, 16 L/ha
[20] = 3 d, pelargonic acid 21760 g/ha, flazasulfuron 50 g/ha, 32 L/ha
[21] = 30 d, pelargonic acid 10880 g/ha, flazasulfuron 50 g/ha, 16 L/ha
[22] = 30 d, pelargonic acid 21760 g/ha, flazasulfuron 50 g/ha, 32 L/ha
[23] = 38 d, pelargonic acid 10880 g/ha, flazasulfuron 50 g/ha, 16 L/ha
[24] = 38 d, pelargonic acid 21760 g/ha, flazasulfuron 50 g/ha, 32 L/ha

CCCCCCCCC(=O)O [Pelargonic acid, nonanoic acid]
15%: herbicidal effect (Chenopodium album; [11]) | herbicidal effect (Chenopodium album; [17]) | herbicidal effect (Chenopodium album; [23]) | herbicidal effect (Plantago major; [13]) | herbicidal effect (Plantago major; [14])
20%: herbicidal effect (Festuca ovina; [1]) | herbicidal effect (Festuca ovina; [3]) | herbicidal effect (Festuca ovina; [4]) | herbicidal effect (Festuca ovina; [16]) | herbicidal effect (Veronica persica; 7 d) | herbicidal effect (Plantago major; [1]) | herbicidal effect (Plantago major; [19])
25%: herbicidal effect (%) (Sonchus oleracea; Sonchus oleracea/6 d, 5440 g of active compound/ha) | herbicidal effect (Plantago major; [3]) | herbicidal effect (Plantago major; [4])
45%: herbicidal effect (%) (Sonchus oleracea; Sonchus oleracea/16 d, 10880 g of active compound/ha) | herbicidal effect (Festuca ovina; [2]) | herbicidal effect (Echinochloa crusgalli; [1]) | herbicidal effect (Echinochloa crusgalli; [6]) | herbicidal effect (Chenopodium album; [2]) | herbicidal effect (Chenopodium album; [20])
30%: herbicidal effect (Festuca ovina; [5]) | herbicidal effect (Festuca ovina; [6]) | herbicidal effect (Echinochloa crusgalli; [3]) | herbicidal effect (Echinochloa crusgalli; [4]) | herbicidal effect (Chenopodium album; [18]) | herbicidal effect (Chenopodium album; [24])
40%: herbicidal effect (%) (Sonchus oleracea; Sonchus oleracea/30 d, 5440 g of active compound/ha) | herbicidal effect (Chenopodium album; [1]) | herbicidal effect (Chenopodium album; [19]) | herbicidal effect (Chenopodium album; [3]) | herbicidal effect (Chenopodium album; [4]) | herbicidal effect (Chenopodium album; [13]) | herbicidal effect (Chenopodium album; [14]) | herbicidal effect (Plantago major; [5]) | herbicidal effect (Plantago major; [6])
43%: herbicidal effect (%) (Sonchus oleracea; Sonchus oleracea/16 d, 8160 g of active compound/ha)
48%: herbicidal effect (%) (Sonchus oleracea; Sonchus oleracea/16 d, 5440 g of active compound/ha) | herbicidal effect (%) (Sonchus oleracea; Sonchus oleracea/30 d, 8160 g of active compound/ha)
10%: herbicidal effect (Echinochloa crusgalli; [11]) | herbicidal effect (Echinochloa crusgalli; [12]) | herbicidal effect (Echinochloa crusgalli; [13]) | herbicidal effect (Echinochloa crusgalli; [14]) | herbicidal effect (Chenopodium album; [7]) | herbicidal effect (Chenopodium album; [8]) | herbicidal effect (Chenopodium album; [9]) | herbicidal effect (Chenopodium album; [10])
53%: herbicidal effect (%) (Sonchus oleracea; Sonchus oleracea/30 d, 10880 g of active compound/ha)
18.8%: herbicidal effect (Lolium sp.)
51.3%: herbicidal effect (Echinochloa crusgalli; 3 d, pelargonic acid 5440 g/ha, flazasulfuron 50 g/ha, 8 L/ha) | herbicidal effect (Digitaria sang; 3 d)
3.8%: herbicidal effect (Sonchus oleraceus L.; 13 d)
8.8%: herbicidal effect (Veronica persica; 3 d)
2.5%: herbicidal effect (Sonchus oleraceus L.; 3 d)
55%: herbicidal effect (%) (Sonchus oleracea; Sonchus oleracea/6 d, 10880 g of active compound/ha)
30.8%: herbicidal effect (Echinochloa crusgalli; 7 d, pelargonic acid 5440 g/ha, flazasulfuron 50 g/ha, 8 L/ha) | herbicidal effect (Digitaria sang; 7 d)
50%: herbicidal effect (%) (Sonchus oleracea; Sonchus oleracea/6 d, 8160 g of active compound/ha) | herbicidal effect (Echinochloa crusgalli; [2]) | herbicidal effect (Plantago major; [20])
5%: herbicidal effect (%) (Stellaria media; Stellaria media/5 d, 5440 g of active compound/ha) | herbicidal effect (Echinochloa crusgalli; 12 d, pelargonic acid 5440 g/ha, flazasulfuron 50 g/ha, 8 L/ha) | herbicidal effect (Digitaria sang; 12 d)
1.3%: herbicidal effect (Sonchus oleraceus L.; 7 d) | herbicidal effect (Sonchus oleraceus L.; 28 d)
11.3%: herbicidal effect (Convolvulus arvensis L.)
16.3%: herbicidal effect (Veronica persica; 56 d)
89%: herbicidal effect (%) (Stellaria media; Stellaria media/5 d, 10880 g of active compound/ha)
13.8%: herbicidal effect (Anagallis arvensis)
0%: herbicidal effect (%) (Stellaria media; Stellaria media/18 d, 5440 g of active compound/ha) | herbicidal effect (%) (Stellaria media; Stellaria media/18 d, 8160 g of active compound/ha) | herbicidal effect (%) (Stellaria media; Stellaria media/18 d, 10880 g of active compound/ha) | herbicidal effect (%) (Sonchus oleracea; Sonchus oleracea/57 d, 5440 g of active compound/ha) | herbicidal effect (%) (Sonchus oleracea; Sonchus oleracea/57 d, 8160 g of active compound/ha) | herbicidal effect (%) (Sonchus oleracea; Sonchus oleracea/57 d, 10880 g of active compound/ha) | herbicidal effect (%) (Sonchus oleracea; Sonchus oleracea/78 d, 5440 g of active compound/ha) | herbicidal effect (%) (Sonchus oleracea; Sonchus oleracea/78 d, 8160 g of active compound/ha) | herbicidal effect (%) (Sonchus oleracea; Sonchus oleracea/78 d, 10880 g of active compound/ha) | herbicidal effect (Festuca ovina; [7]) | herbicidal effect (Festuca ovina; [8]) | herbicidal effect (Festuca ovina; [9]) | herbicidal effect (Festuca ovina; [10]) | herbicidal effect (Festuca ovina; [11]) | herbicidal effect (Festuca ovina; [12]) | herbicidal effect (Festuca ovina; [13]) | herbicidal effect (Festuca ovina; [14]) | herbicidal effect (Festuca ovina; [15]) | herbicidal effect (Festuca ovina; [17]) | herbicidal effect (Festuca ovina; [18]) | herbicidal effect (Echinochloa crusgalli; [7]) | herbicidal effect (Echinochloa crusgalli; [8]) | herbicidal effect (Echinochloa crusgalli; [9]) | herbicidal effect (Echinochloa crusgalli; [10]) | herbicidal effect (Echinochloa crusgalli; 26 d, pelargonic acid 5440 g/ha, flazasulfuron 50 g/ha, 8 L/ha) | herbicidal effect (Echinochloa crusgalli; [15]) | herbicidal effect (Echinochloa crusgalli; [16]) | herbicidal effect (Echinochloa crusgalli; [17]) | herbicidal effect (Echinochloa crusgalli; [18]) | herbicidal effect (Echinochloa crusgalli; 72 d, pelargonic acid 5440 g/ha, flazasulfuron 50 g/ha, 8 L/ha) | herbicidal effect (Digitaria sang; 72 d) | herbicidal effect (Chenopodium album; [15]) | herbicidal effect (Chenopodium album; [21]) | herbicidal effect (Chenopodium album; [16]) | herbicidal effect (Chenopodium album; [22]) | herbicidal effect (Plantago major; [7]) | herbicidal effect (Plantago major; [8]) | herbicidal effect (Plantago major; [9]) | herbicidal effect (Plantago major; [10]) | herbicidal effect (Plantago major; [15]) | herbicidal effect (Plantago major; [21]) | herbicidal effect (Plantago major; [16]) | herbicidal effect (Plantago major; [22]) | herbicidal effect (Plantago major; [17]) | herbicidal effect (Plantago major; [23]) | herbicidal effect (Plantago major; [18]) | herbicidal effect (Plantago major; [24]) | herbicidal effect (Sonchus oleraceus L.; 58 d)
35%: herbicidal effect (Chenopodium album; [5]) | herbicidal effect (Chenopodium album; [6])
